Source: ChEMBL document CHEMBL1145476, “Inhibitory activities of three classes of acyclic nucleoside phosphonates against murine polyomavirus and primate simian virus 40 strains” (Antimicrob Agents Chemother, 2007)

Assays:
[1] = Selectivity index, ratio of CC50 for mouse UC1B cells to EC50 of Murine polyomavirus MN/RDE Toronto; assay type: functional
Murine polyomavirus [2] = experiment: Antiviral activity against Murine polyomavirus MN/RDE Toronto in mouse UC1B cells assessed as reduction of virus-induced cytopathogenicity; assay type: functional, cell-based; details: Alphapolyomavirus muris
Murine polyomavirus [3] = experiment: Antiviral activity against Murine polyomavirus 2PTA2 in mouse UC1B cells assessed as reduction of virus-induced cytopathogenicity; assay type: functional, cell-based; details: Alphapolyomavirus muris, 2PTA2, UC1B
[4] = Selectivity index, ratio of CC50 for african green monkey BSC1 cells ot EC50 for Simian virus 40 PML2 DAR; assay type: functional, BSC-1
[5] = Cytotoxicity against african green monkey BSC1 cells; assay type: cell-based, BSC-1; details: chlorocebus aethiops
[6] = Cytotoxicity against mouse UC1B cells; assay type: cell-based
[7] = Selectivity index, ratio of CC50 for african green monkey BSC1 cells ot EC50 for Simian virus 40 A2895; assay type: functional, BSC-1
[8] = Selectivity index, ratio of CC50 for mouse UC1B cells to EC50 of Murine polyomavirus 2PTA2; assay type: functional
Murine polyomavirus [9] = experiment: Antiviral activity against Murine polyomavirus PTA in mouse UC1B cells assessed as reduction of virus-induced cytopathogenicity; assay type: functional, cell-based; details: Alphapolyomavirus muris
[10] = Selectivity index, ratio of CC50 for mouse UC1B cells to EC50 of Murine polyomavirus PTA; assay type: functional
Simian virus 40 [11] = experiment: Antiviral activity against Simian virus 40 A2895 in african green monkey BSC1 cells assessed as reduction of virus-induced cytopathogenicity; assay type: functional, organism-based; details: Betapolyomavirus macacae, A2895, BSC-1
Simian virus 40 [12] = experiment: Antiviral activity against Simian virus 40 PML2 DAR in african green monkey BSC1 cells assessed as reduction of virus-induced cytopathogenicity; assay type: functional, organism-based; details: Betapolyomavirus macacae, BSC-1
Murine polyomavirus [13] = experiment: Antiviral activity against Murine polyomavirus LID1 ATCC VR-252 in mouse UC1B cells assessed as reduction of virus-induced cytopathogenicity; assay type: functional, cell-based; details: Alphapolyomavirus muris
[14] = Selectivity index, ratio of CC50 for african green monkey BSC1 cells ot EC50 for Simian virus 40 PML1 EK; assay type: functional, BSC-1
Simian virus 40 [15] = experiment: Antiviral activity against Simian virus 40 PML1 EK in african green monkey BSC1 cells assessed as reduction of virus-induced cytopathogenicity; assay type: functional, organism-based; details: Betapolyomavirus macacae, BSC-1
[16] = Selectivity index, ratio of CC50 for mouse UC1B cells to EC50 of Murine polyomavirus LID1; assay type: functional
Simian virus 40 [17] = experiment: Antiviral activity against Simian virus 40 A2895 in african green monkey BSC1 cells assessed as reduction of virus yield; assay type: functional; details: Betapolyomavirus macacae, A2895, BSC-1
Murine polyomavirus [18] = experiment: Antiviral activity against Murine polyomavirus LID1 in UC1B cells assessed as reduction of virus yield; assay type: functional; details: Alphapolyomavirus muris
Murine polyomavirus [19] = experiment: Antiviral activity against Murine polyomavirus PTA in UC1B cells assessed as reduction of virus yield; assay type: functional; details: Alphapolyomavirus muris

| SMILES | Ratio CC50/EC50 [1] | EC50 (Murine polyomavirus [2]) [µM] | EC50 (Murine polyomavirus [3]) [µM] | Ratio CC50/EC50 [4] | CC50 [5] [µM] | CC50 [6] [µM] | Ratio CC50/EC50 [7] | Ratio CC50/EC50 [8] | EC50 (Murine polyomavirus [9]) [µM] | Ratio CC50/EC50 [10] | EC50 (Simian virus 40 [11]) [µM] | EC50 (Simian virus 40 [12]) [µM] | EC50 (Murine polyomavirus [13]) [µM] | Ratio CC50/EC50 [14] | EC50 (Simian virus 40 [15]) [µM] | Ratio CC50/EC50 [16] | EC99 (Simian virus 40 [17]) [µM] | EC99 (Murine polyomavirus [18]) [µM] | EC99 (Murine polyomavirus [19]) [µM] |
| --- | --- | --- | --- | --- | --- | --- | --- | --- | --- | --- | --- | --- | --- | --- | --- | --- | --- | --- | --- |
| Nc1cc(OC[C@@H](CO)OCP(=O)(O)O)nc(N)n1 | 0.9 | 11.2 | 13.9 | 1.2 | 140 | 10.5 | 1.9 | 0.8 | 10.9 | 1 | 72.8 | 112 | 8.2 | 1.9 | 73.1 | 1.3 |  |  |  |
| CCCCCCCCCCCCCCCCOCCOP1(=O)CO[C@@H](Cn2cnc(N)nc2=O)CO1 (stereo not given in full) | 34.2 | 0.55 | 0.56 | 39.4 | 13.4 | 18.8 | 44.7 | 33.6 | 0.53 | 35.5 | 0.3 | 0.34 | 0.88 | 58.3 | 0.23 | 21.4 | 0.26 | 0.81 | 0.43 |
| Nc1cc(OCCOCP(=O)(O)O)nc(N)n1 | 2 | 21.2 | 15.9 | 0.4 | 72.8 | 43.2 | 0.5 | 2.7 | 9.5 | 4.5 | 148 | 181 | 12.1 | 0.5 | 140 | 3.6 |  |  |  |
| Nc1ccn(C[C@@H](CO)OCP(=O)(O)O)c(=O)n1.O.O [CIDOFOVIR] | 13 | 13 | 19 | 23.8 | 424 | 169 | 22.3 | 8.9 | 16.2 | 10.4 | 19 | 17.8 | 18.7 | 21.9 | 19.3 | 9 |  |  |  |
| Nc1ncnc2c1ncn2C[C@H]1COP(=O)(O)CO1 | 4.9 | 39 | 47.4 | 9.7 | 371 | 190 | 11.4 | 4 | 65.3 | 2.9 | 32.6 | 38.3 | 58.6 | 7.5 | 49.8 | 3.2 |  |  |  |
| Nc1ncn(C[C@H]2COP(=O)(O)CO2)c(=O)n1 | 8.1 | 17.1 | 20.6 | 16.9 | 323 | 139 | 16.3 | 6.8 | 32 | 4.3 | 19.8 | 19.1 | 38.1 | 16.3 | 19.8 | 3.7 |  |  |  |
| Nc1ncnc2c1ncn2C[C@@H](CO)OCP(=O)(O)O | 2.6 | 9.5 | 9.5 | 8.8 | 89.3 | 24.3 | 7.3 | 2.6 | 14.5 | 1.7 | 12.3 | 10.2 | 13.2 | 5.8 | 15.4 | 1.8 |  |  |  |
| Nc1ncn(C[C@@H](CO)OCP(=O)(O)O)c(=O)n1 | 30.6 | 9.6 | 13.9 | 27.4 | 436 | 294 | 27.1 | 21.1 | 13.9 | 21.1 | 16.1 | 16.1 | 16.1 | 29.9 | 14.6 | 18.2 |  |  |  |
| Nc1ncnc2c1ncn2CCOCP(=O)(O)O [ADEFOVIR] | 2.5 | 9.5 | 12.8 | 1.7 | 210 | 24.2 | 1.3 | 1.9 | 11.3 | 2.1 | 158 | 126 | 9.9 | 1.3 | 168 | 2.4 |  |  |  |
| Nc1nc(N)c2ncn(C[C@@H](CO)OCP(=O)(O)O)c2n1 | 3 | 7.2 | 6.3 | 4.6 | 217 | 21.4 | 4.4 | 3.4 | 8.2 | 2.6 | 49.3 | 47.1 | 9.1 | 6.5 | 33.6 | 2.4 |  |  |  |
| Nc1nccc2c1ncn2C[C@@H](CO)OCP(=O)(O)O | 4.9 | 9.9 | 11.6 | 6 | 43.7 | 49 | 3.1 | 4.2 | 14.9 | 3.3 | 13.9 | 7.3 | 13.9 | 7.3 | 6 | 3.5 |  |  |  |
| Nc1ccn(C[C@H]2COP(=O)(O)CO2)c(=O)n1 [CYCLIC CIDOFOVIR] | 16.7 | 34.9 | 61.2 | >=36.3 | ≥ 672 | 582 | >=30.3 | 9.5 | 54.4 | 10.7 | 22.2 | 18.5 | 42 | >=32.3 | 20.8 | 13.8 |  |  |  |
